Reference: PMC4819222, “CD300c is uniquely expressed on CD56^bright Natural Killer Cells and differs from CD300a upon ligand recognition” (Scientific Reports, 2016)

Legend:
CD300c-Ig = biological target: T1, CD300c-Ig (Homo sapiens, UniProt Q08708); assay: ELISA on plates coated with pure lipid; SPR on L1-chip liposomes (Biacore T200); format: binding; settings: immobilised lipid; Fc fusion protein as analyte
T1 construct: extracellular domain fused to Fc fragment of human IgG2 (Fc as tag)
T1 sequence (Q08708 21-183 limits assumed): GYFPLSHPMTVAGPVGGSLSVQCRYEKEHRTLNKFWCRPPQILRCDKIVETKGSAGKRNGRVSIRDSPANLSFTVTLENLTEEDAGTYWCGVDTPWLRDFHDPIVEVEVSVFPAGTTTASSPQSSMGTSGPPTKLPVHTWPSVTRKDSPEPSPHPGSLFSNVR

CD300a-Ig = biological target: T2, CD300a-Ig (Homo sapiens, UniProt Q9UGN4); assay: as above; format: binding; settings: immobilised lipid; Fc fusion protein as analyte
T2 construct: Ig (Fc) fusion protein, Fc as tag
T2 sequence (Q9UGN4 18-180 limits assumed): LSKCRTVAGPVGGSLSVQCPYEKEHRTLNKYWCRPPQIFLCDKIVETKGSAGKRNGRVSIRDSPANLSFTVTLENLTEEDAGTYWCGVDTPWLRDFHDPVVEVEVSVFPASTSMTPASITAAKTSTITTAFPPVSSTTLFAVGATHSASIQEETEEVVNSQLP

CCCCCCCC/C=C\CCCCCCCC(=O)O[C@H](COC(=O)CCCCCCCCCCCCCCC)COP(=O)(O)OCCN [PE, 1-palmitoyl-2-oleoyl (PO) phosphatidylethanolamine (POPE)]
ELISA on plates coated with pure lipid; SPR on L1-chip liposomes (Biacore T200) (CD300c-Ig): CD300c-Ig binds to both PS and PE at the same level
ELISA on plates coated with pure lipid; SPR on L1-chip liposomes (Biacore T200) (CD300a-Ig): CD300a-Ig predominantly binds to PE
